This note sets out measurements from patent US5656452A, “NF-ATp, ' a T lymphocyte DNA-binding protein” (President and Fellows of Harvard College, priority 1993, dated 1997).

Assay [1] has as its system Ar-5 T cells (NF-AT induction, IL-2 gene expression). Kind of assay: Induction of NF-AT and IL-2 gene expression in activated Ar-5 T cells. It counts as cell-based, murine. The settings on record: Ar-5 cells activated through T cell antigen receptor/CD3. How it is done:
For preparation of nuclear extracts from activated T cells, cells were incubated for two hours with cross-linked anti-CD3ε monoclonal antibody (145-2C11, Kubo, R. T., Born, W., Kappler, J. W., Marrack, P., and Pigeon, M. (1989) J. Immunol. 142, 2736-2742) in the presence or absence of 1 μM CsA. Activation conditions and preparation of nuclear extracts was exactly as previously described (McCaffrey, P. G., Jain, J., Jamieson, C., Sen, R., and Rao, A. (1992) J. Biol. Chem. 267, 1864-1871). Protein determinations were done by the method of Bradford (Bradford, M. (1976) Anal. Biochem. 72,248-254), using bovine serum albumin as a standard.
To characterize the preexisting, DNA-binding component of NF-AT, we have used the murine IL-2 dependent T cell clone Ar-5. Activation of Ar-5 cells with monoclonal antibodies to the T cell antigen receptor or its associated CD3 complex causes the rapid appearance in the nucleus of several inducible transcription factor including NF-AT, which is followed by expression of the IL-2 gene and cell proliferation (Jamieson, C., McCaffrey, P. G., Rao, A., and Sen, R. (1991) J. Immunol. 147,416-420). […] We have previously established that unactivated Ar-5 cells contain a protein or proteins, extracted under hypotonic lysis conditions, that can bind in the EMSA to an oligonucleotide comprising the distal NF-AT sequence from the murine IL-2 promoter. […]

Assay [2] deals with NF-ATp dephosphorylation in Ar-5 T cell extracts. Kind of assay: Dephosphorylation of NF-ATp (apparent molecular weight by SDS-PAGE, renaturation, EMSA) in extracts of drug-treated Ar-5 T cells. It counts as cell-based, murine. The settings on record: prior treatment of T cells for 10 minutes with 1 μM CsA or 100 nM FK506 before lysis. How it is done: To prepare hypotonic extracts, cells were harvested by centrifugation, washed with phosphate buffered saline and resuspended to 10^8 cells/ml in buffer containing 7.5 mM Tris (pH 7.6), 2 mM PMSF, 1 mM MgCl2, 0.5 mM DTT, 0.25 mM leupeptin, 0.1 mM EDTA and 1 mg/ml aprotinin. The cells were lysed by quick-freezing in dry ice and rapid thawing in a room-temperaturewater bath, followed by centrifugation at 12,000 x g for 10 minutes. Where indicated, cells were treated before harvesting with 1 μM CsA (Sandoz Corp.) or 100 nM FK506 (Fujisawa Pharmaceutical) for 10 minutes at 37° C.
Hypotonic or nuclear extracts were boiled in SDS-PAGE sample buffer (65 mM Tris, pH 6.8, 2% SDS, 2% 2-mercaptoethanol, 10% glycerol, 0.01 mg/ml bromphenol blue) and fractionated on 3 mm thick SDS-polyacrylamide gels by standard methods (Laemmli, U. K. (1970) Nature 227, 680-685). Molecular weight standards (BioRad Laboratories) were also run on the same gel. After electrophoresis, the standards were cut off and separately stained. For recovery of proteins from the gels, slices (1 cm×0.5 cm) from wet, unfixed gels were crushed and eluted overnight in 50 mM Tris, pH 7.9, 1 mM DTT, 0.2 mM EDTA, 0.1 mM PMSF, 0.1 mg/ml BSA, 2.5% glycerol and 0.1% SDS (Baeuerle, P., and Baltimore, D. (1988) Cell 53, 211-217). […]

Regarding `C=CC[C@@H]1/C=C(\C)C[C@H](C)C[C@H](OC)[C@H]2O[C@@](O)(C(=O)C(=O)N3CCCC[C@H]3C(=O)O[C@H](/C(C)=C/[C@@H]3CC[C@@H](O)[C@H](OC)C3)[C@H](C)[C@@H](O)CC1=O)[C@H](C)C[C@@H]2OC` [FK506], the “Induction of NF-AT and subsequent IL-2 gene expression” value in assay [1] was “completely blocked”. Further, in assay [2], the “Dephosphorylation of NF-ATp in cell extracts” value is given as “inhibited”.
